Reference: article PMC9929232, “On-demand male contraception via acute inhibition of soluble adenylyl cyclase” (Nature Communications, 2023)
Several values for one entry are separate records, joined by “and”; a condition that tells them apart may be missing. Identical values can stand only once.

Columns and labels:
epididymal mouse sperm [1] = test: Tyrosine phosphorylation (pY) Western blot of sperm from injected mice; settings: for capacitation-induced pY pattern: 50 mg/kg i.p., 1 hour
Protocol: (§1) For capacitation, sperm were incubated for 90 min in TYH containing 3 mg/ml BSA and 25 mM NaHCO3 in a 37 °C incubator. To control for the consequences of dilution during isolation of epididymal mouse sperm for ex vivo assays, we assessed the ability of bicarbonate to induce a prototypical pattern of tyrosine phosphorylation (pY) which is a widely used molecular hallmark of capacitation[53]. […] For experiments studying sperm from injected mice, ‘swim out’ was performed in 200 μl TYH, which corresponded to a 1:10 dilution from epididymis (20 μg cauda in 200 μl buffer). Capacitation-induced changes were assessed by adding 50 µl of ‘swim out’ sperm to increasing volumes of capacitating TYH buffer.
Mouse sperm from vehicle- or inhibitor-injected mice were isolated 1 hour post injection from male mice injected (i.p.) with 150 µl of solution containing sAC inhibitor or vehicle. ‘Swim out’ sperm were diluted 1:1 to 1:100 in capacitating TYH media. As control, sperm from vehicle-injected mice were diluted 1:100 in non-capacitating and capacitating TYH buffer. The samples were incubated for 90 min, washed with 1 ml PBS and sedimented by centrifugation at 2000 × g for 3 min. The sedimented sperm were resuspended in 15 μl 2× Laemmli sample buffer, heated for 5 min at 95 °C, supplemented with 8 µl β-mercaptoethanol and heated again for 5 min at 95 °C. For Western blot analysis, proteins were transferred onto PVDF membranes (Thermo Scientific), probed with anti-phosphotyrosine (1:1000, clone 4G10, Merck Millipore) and anti-mouse IgG (1:10,000, Cell Signaling Technology) antibodies, and analyzed using a chemiluminescence detection system. Image lab (Bio-Rad) was used for densitometric analysis of western blots.

mouse sperm = test: Acrosome reaction assay, mouse sperm, zona pellucidae-evoked; format: cell-based; settings: Fig. 2g replicates, 5 μM TDI-10229 or 10 nM TDI-11861
Protocol: Zonae pellucidae were isolated from female mice superovulated by intraperitoneal injection of 10 I.U. […] 3 days before the experiment. 14 h before oocyte isolation, mice were injected with 10 I.U. pregnant mare’s serum gonadotropin. Mice were sacrificed by cervical dislocation and oviducts were dissected. Cumulus-enclosed oocytes were separated from the oviducts and placed into TYH buffer containing 300 μg/ml hyaluronidase. After 15 min, cumulus-free oocytes were transferred into fresh buffer and washed twice. Zonae pellucidae and oocytes were separated by shear forces generated by expulsion from […] pasteur pipettes. Zona pellucidae were counted, transferred into fresh buffer, and heat-solubilized by incubation for 10 min at 65 °C.
Acrosome reaction was induced by incubating mouse sperm with 50 mouse solubilized zonae pellucidae for 15 min at 37 °C. Human sperm were incubated with 10 μM progesterone for 30 min at 37 °C. […] Samples were air-dried on microscope slides and fixed for 30 minutes in 100% ethanol at room temperature (RT). For acrosome staining, mouse and human sperm were incubated for 30 min in the dark with 5 μg/ml PNA-FITC or 5 μg/ml PSA-FITC, respectively, and counterstained with 2 μg/ml DAPI. After curing, slides were analyzed using a Zeiss LSM 880 Laser Scanning Confocal Microscope; images were captured with two photomultiplier and one Gallium Arsenide Phosphide detector using ZEN Imaging software. For each condition, at least 600 cells were analyzed using ImageJ 1.52.

epididymal mouse sperm [2] = test: Ex vivo motility (CASA) of epididymal sperm from inhibitor-treated male mice; format: in vivo
Protocol: Sperm movements of 10 fields of at least 200 sperm were examined using computer-assisted sperm analysis (CASA) via Hamilton–Thorne digital image analyzer (IVOS II, Hamilton Thorne Research, Beverly, MA) with the following parameters: 30 frames, frame rate: 60 Hz, cell size: 30–170 μm^2. Ejaculated uterine mouse sperm were recorded without additional dilution. Sperm were considered motile when presenting STR ≥80% and VAP ≥50 μm/s and hyperactivated when presenting VCL ≥270 μm/s, LIN < 50%, and ALH ≥7 μm. Track´s color code: motile (green), progressive (turquoise), hyperactivated (purple), slow (pink), static (red), not counted due to late entry (yellow).

epididymal mouse sperm [3] = test: Ex vivo cAMP generation in epididymal sperm from inhibitor-treated male mice (oral or i.p.)
Protocol: as §1
Intracellular cAMP levels were quantified using the Direct cAMP ELISA kit (Enzo) as above.

[4] = target: T1, immobilized human sAC protein (Homo sapiens, UniProt Q96PN6); test: Surface plasmon resonance binding kinetics;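 further: Reference-channel response subtracted from active-channel response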; settings: Fig. 1e
T1 construct: recombinant purified His-tagged sACt protein (50 μg/ml)
T1 sequence (Q96PN6 1-469 limits assumed): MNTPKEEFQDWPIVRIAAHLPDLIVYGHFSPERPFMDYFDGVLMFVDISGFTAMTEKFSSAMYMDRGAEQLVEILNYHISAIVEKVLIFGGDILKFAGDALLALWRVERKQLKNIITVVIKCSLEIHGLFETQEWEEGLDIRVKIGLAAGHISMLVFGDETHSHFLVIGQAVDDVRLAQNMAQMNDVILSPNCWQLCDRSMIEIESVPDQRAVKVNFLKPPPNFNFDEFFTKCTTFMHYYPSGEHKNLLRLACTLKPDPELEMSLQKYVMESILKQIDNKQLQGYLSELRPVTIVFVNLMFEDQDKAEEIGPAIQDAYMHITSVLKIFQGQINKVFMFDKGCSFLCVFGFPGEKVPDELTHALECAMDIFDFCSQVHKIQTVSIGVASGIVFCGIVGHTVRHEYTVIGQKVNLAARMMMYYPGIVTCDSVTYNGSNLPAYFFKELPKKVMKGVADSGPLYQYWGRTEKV
Protocol: Association and dissociation rate constants of sAC inhibitors were obtained with a Biacore 8K instrument (Cytiva) using a parallel kinetics protocol. Series S Sensor NTA chips (Cytiva) were prepared by applying recombinant purified His-tagged sACt protein (50 μg/ml) in PBS-P+ buffer (1 mM KH2PO4, 150 mM NaCl, 6 mM Na2HPO4, 0.05% (w/v) P20 Surfactant). The His-tagged sAC protein was captured via Ni^2+-His-tag chelation and covalently immobilized by amine coupling with a 1:1 mixture of 1-ethyl-3-(3-dimethylaminopropyl) carbodiimide and N-hydroxysuccinimide (active channels). After coupling, remaining reactive groups on the chip’s surface were blocked with 1 M ethanolamine followed by 350 mM EDTA to wash away any free Ni^2+. Following preparation, TBS-P+ running buffer (50 mM Tris, 150 mM NaCl, and 0.05% P20 Surfactant) supplemented with 1% DMSO was flowed over the surface of the chip until a stable baseline was obtained. For each sAC inhibitor, which were dissolved in DMSO and diluted in running buffer, increasing concentrations were injected into parallel channels for 120 s at a flow rate of 50 µl/min followed by running buffer for 600 s to allow for dissociation. All experiments included reference channels; i.e., inhibitor run over parallel channels without immobilized protein. […] Curves were fitted, and kon, KD, and koff values were determined using the Biacore 8K Insight Evaluation Software Version 2.0 (Cytiva) and a 1:1 binding kinetics model.

SPR sensorgram response ([4]; 2.3 nM, Time 1.8 s): -0.005 | SPR sensorgram response ([4]; 2.3 nM, Time 1.9 s): -0.0004 | SPR sensorgram response ([4]; 2.3 nM, Time 2 s): 1.724e-7 | SPR sensorgram response ([4]; 7 nM, Time 1.8 s): 0.0365 | SPR sensorgram response ([4]; 7 nM, Time 1.9 s): 0.0954 | SPR sensorgram response ([4]; 7 nM, Time 2 s): 0.1127 | SPR sensorgram response ([4]; 21 nM, Time 1.8 s): 0.0362 | SPR sensorgram response ([4]; 21 nM, Time 1.9 s): 0.0362 | SPR sensorgram response ([4]; 21 nM, Time 2 s): 0.0493 | SPR sensorgram response ([4]; 62 nM, Time 1.8 s): 0.4405 | SPR sensorgram response ([4]; 62 nM, Time 1.9 s): 0.5261 | SPR sensorgram response ([4]; 62 nM, Time 2 s): 0.5966 | SPR sensorgram response ([4]; 185 nM, Time 1.8 s): 1.6528 | SPR sensorgram response ([4]; 185 nM, Time 1.9 s): 1.8027 | SPR sensorgram response ([4]; 185 nM, Time 2 s): 1.949 | SPR sensorgram response ([4]; 555 nM, Time 1.8 s): 3.219 | SPR sensorgram response ([4]; 555 nM, Time 1.9 s): 3.5189 | SPR sensorgram response ([4]; 555 nM, Time 2 s): 3.8049 | SPR sensorgram response ([4]; 1670 nM, Time 1.8 s): 10.7814 | SPR sensorgram response ([4]; 1670 nM, Time 1.9 s): 11.5936 | SPR sensorgram response ([4]; 1670 nM, Time 2 s): 12.3892
Compound: Cc1c(Cc2ccccc2)c(-c2cc(Cl)nc(N)n2)nn1C [TDI-10229, reference compound]
capacitation-induced pY pattern (epididymal mouse sperm [1]; diluted 25 fold): restored | capacitation-induced pY pattern (epididymal mouse sperm [1]; swim out sperm mixed with equal volume capacitation media): blocked | normalized pY (epididymal mouse sperm [1]; Fig. S1f, 1:1 capacitating media): 1.44 and 0.9739 and 0.9492 and 1.269 and 0.7377 and 0.8308 and 0.9909 and 0.9583 | normalized pY (epididymal mouse sperm [1]; Fig. S1f, 1:5 capacitating media): 1.231 and 0.8896 and 0.8967 and 1.293 and 1.015 and 0.7938 and 1.073 and 0.7598 | normalized pY (epididymal mouse sperm [1]; Fig. S1f, 1:10 capacitating media): 1.238 and 0.8061 and 0.8834 and 1.18 and 1.244 and 0.7753 and 1.106 and 0.8286 | normalized pY (epididymal mouse sperm [1]; Fig. S1d, 1:1 capacitating media): 1.323 and 2.451 and 1.717 and 1.956 | normalized pY (epididymal mouse sperm [1]; Fig. S1d, 1:5 capacitating media): 1.566 and 2.38 and 1.568 and 1.6103 | normalized pY (epididymal mouse sperm [1]; Fig. S1d, 1:10 capacitating media): 1.95 and 2.076 and 2.342 and 1.601 | normalized pY (epididymal mouse sperm [1]; Fig. S1d, 1:25 capacitating media): 1.653 and 2.642 and 2.388 | normalized pY (epididymal mouse sperm [1]; Fig. S1d, 1:50 capacitating media): 1.946 and 2.557 and 2.122 and 1.827 | normalized pY (epididymal mouse sperm [1]; Fig. S1d, 1:100 capacitating media): 1.953 and 2.689 and 1.737 and 1.751 | Acrosome reacted (%), basal + db-cAMP/IBMX (mouse sperm; 5 mM db-cAMP/500 μM IBMX): 27.72% and 28.24% and 29.05% and 27.83% and 24.06% | Acrosome reacted (%), ZP (mouse sperm; 50 heat-solubilized zona pellucidae): 22.4% and 26.2% and 28.2% and 15.6% and 20% | Acrosome reacted (%), basal (mouse sperm; 90 min capacitating media): 20.3% and 33.8% and 26.7% and 16.5% and 28% | Acrosome reacted (%), ZP + db-cAMP/IBMX (mouse sperm; zona pellucidae, 5 mM db-cAMP/500 μM IBMX): 32% and 38.6% and 36.8% and 38% and 41.8% | motility of epididymal sperm diluted ex vivo (epididymal mouse sperm [2]; 50 mg/kg oral): motile and indistinguishable from sperm from vehicle-treated mice | motility (%) (epididymal mouse sperm [2]; Fig. 3b replicates, 50 mg/kg oral gavage, 1 hour, diluted 1:100 in inhibitor-free non-capacitating media, CASA, 50 mg/kg): 34.7% and 36.8% and 35.1% and 36.4% and 29.7% and 32.4% and 30.6% and 26% and 32% and 33.4% and 29.4% | motility (%) (epididymal mouse sperm [2]; Fig. 3d, individual replicates): 19.9% and 28.3% and 25% and 29.5% and 30.2% and 35.4% and 40.7% and 41.4% and 42.3% | bicarbonate-induced cAMP response, sperm directly isolated (epididymal mouse sperm [3]; 50 mg/kg i.p.): prevented bicarbonate-induced increase in cAMP | bicarbonate-induced cAMP response, sperm measured directly (epididymal mouse sperm [3]; 50 mg/kg oral, 1 hour, cauda sperm): no bicarbonate-induced increase in cAMP | normalized cAMP, diluted (epididymal mouse sperm [3]; Fig. 3a replicates, 50 mg/kg oral gavage, 100-fold dilution into inhibitor-free media, capacitating relative to non-capacitated, 50 mg/kg): 2.085 and 1.745 and 2.432 and 2.093 and 1.3062 and 3.591 and 2.931 and 3.583 | normalized cAMP, non-diluted (epididymal mouse sperm [3]; Fig. 3a replicates, 50 mg/kg oral gavage, capacitating relative to non-capacitated sperm of same mouse, 12 minutes, 50 mg/kg): 1.449 and 1.743 and 0.3 and 0.7791 and 0.9239 and 0.4534 and 0.1485 and 0.05415 | normalize cAMP, diluted (epididymal mouse sperm [3]; Fig. 3c replicates, 50 mg/kg i.p., 100-fold dilution into inhibitor-free media, capacitating relative to non-capacitated, 50 mg/kg): 1.94 and 1.936 and 3.937 and 2.155 and 1.983 and 3.104 and 1.124 and 4 and 3.176 and 2.922 and 1.239 | normalize cAMP, non-diluted (epididymal mouse sperm [3]; Fig. 3c replicates, 50 mg/kg i.p., capacitating relative to non-capacitated sperm of same mouse, 12 minutes, 50 mg/kg): 0.2801 and 0.5834 and 0.6474 and 0.2247 and 1.279 and 0.9423 and 1.0897 and 0.542 and 0.3506 and 1.1072 and 1.1267
